Laboratory results reported in ChEMBL document CHEMBL2016490, “Sinularioside, a triacetylated glycolipid from the Indonesian soft coral Sinularia sp., is an inhibitor of NO release” (2012).

Key:
Assay type in all cases: functional
Conditions in all cases: J774, 24 h
J774 [1] = assay: Antiinflammatory activity in mouse J774 cells assessed as inhibition of LPS-induced NO production at 10 uM after 24 hrs by Griess method
J774 [2] = assay: Antiinflammatory activity in mouse J774 cells assessed as inhibition of LPS-induced NO production at 100 uM after 24 hrs by Griess method
J774 [3] = assay: Antiinflammatory activity in mouse J774 cells assessed as inhibition of LPS-induced NO production at 30 uM after 24 hrs by Griess method

CCCCCCCCCCCCCCO[C@H]1OC[C@@H](O[C@H]2OC[C@@H](O)[C@@H](OC(C)=O)[C@@H]2OC(C)=O)[C@@H](O)[C@@H]1OC(C)=O [SINULARIOSIDE]
inhibition at 10 µM (J774 [1]): 6% | inhibition at 100 µM (J774 [2]): 92.3% | inhibition at 30 µM (J774 [3]): 58.2%
